Measured values from patent publication US4122199A, “Amides of pyrrolidinoethylamine which can be used in treatment of coughs” (Pierre Fabre S.A., priority 1976, dated 1978).
Where a name gives a salt, the structure may show the parent alone. Read-outs that look alike come from different tables or passages of the source.

Key:
[1] = in vivo; settings: mouse, in vivo, mice, isotonic aqueous solution
Protocol: (§1) It is determined on mice, the products being administered orally, intraperitoneally, and intraveneously in isotonic aqueous solution.

[2] = Local anesthesia activity; settings: compared with procaine
[3] = Solubility characteristics; type: physicochemical
[4] = tested on: Pseudomonas aeruginosa; experiment: Fungistatic/bacteriostatic effect, Pseudomonas aeruginosa; type: cell-based; settings: compared with S. aureus and E. coli
Protocol: (§2) The determination of fungistatic bacteriostatic properties was carried out by two methods on four strains:
(§3) Halved serial dilutions are formed in a hemoylsis tube, in each case to a volume of 1 ml; each dilution is inoculated with 10^6 micro-organisms per ml. After 48 hours in the oven, the minimum inhibitory concentration is determined. A subculture of the negative tubes (bacteriostatic), makes it possible to note the bactericidal concentration.

[5] = tested on: micro-organisms; experiment: Bactericidal action (subculture of the negative tubes); type: cell-based; settings: at concentrations of 1 g percent
Protocol: as §2, §3

[6] = tested on: Candida albicans; experiment: Fungistatic/bacteriostatic effect, Candida albicans; type: cell-based; settings: compared with S. aureus and E. coli
Protocol: as §2, §3

[7] = tested on: mice; experiment: Antalgic properties: decrease in contortions caused by phenyl benzoquinone, in mice; type: in vivo; settings: 150 mg/kg by mouth
Protocol: The antalgic properties with respect to a decrease in contortions caused by phenyl benzoquinone, as measured in mice, are very clear from the 150 mg/kg by mouth in the case of F 1534 (40% decrease), F 1539 (75% decrease), and F 1541 (60% decrease).

[8] = tested on: guinea pigs; experiment: Citric acid aerosol method on guinea pigs (antitussive); type: in vivo; settings: for change in vivo at 50 mg/kg: Cavia porcellus, ip, 0.25 h, 50 mg/kg i.p., 20 minutes before 20% citric acid aerosol, read-out: % reduction of no. of coughs in 15 minutes; for % decrease in no. coughs in 15 mins.: orally, citric acid aerosol
Protocol: The animals were subjected to a 20% citric acid aerosol for 15 minutes.
The coughs were recorded by a microphone.
The products were administered intraperitoneally 20 minutes before the exposure to the aerosol.
Some derivatives were also tested orally.

[9] = tested on: mice; experiment: in vivo; settings: isotonic aqueous solution
Protocol: as §1

[10] = ip, intraperitoneal, read-out: DL 50 intraperitoneal

Structure (SMILES)	LD50 [1, 10] [mg/kg]	LD50 ([1]; po, oral, read-out: DL 50 oral) [mg/kg]	local anesthesia activity [2]	Solubility in water ([3]; in words)	decrease in contortions caused by phenyl benzoquinone [7] [%]	change in vivo at 50 mg/kg [8] [%]	Solubility in ethanol ([3]; in words)	Solubility in propylene glycol ([3]; in words)	other results
O=C(NCCN1CCCC1)C1c2ccccc2Oc2ccccc21 [F 1534, N(2'-pyrrolidino-ethyl)-9-xanthene carboxamide hydrochloride]	178	750	high order of local anesthesia activity comparable to that of procaine	very soluble	40				Solubility in ethanol ([3]; % soluble): 10%; Solubility in propylene glycol ([3]; % soluble): 10%; effect on Pseudomonas aeruginosa [4]: more moderate but significant effect; bactericidal action [5]: real and significant; effect on Candida albicans [6]: more moderate but significant effect
O=C(NCCN1CCCC1)C(O)(c1ccccc1)c1ccccc1 [F 1535, N(2'-pyrrolidino-ethyl)-α,α-diphenyl-hydroxy-acetamide hydrochloride]	237		high order of local anesthesia activity comparable to that of procaine	very soluble					LD50 ([1]; oral, read-out: DL 50 oral): 562 mg/kg
O=C(O)c1ccccc1C(=O)NCCN1CCCC1 [F 1537, N(2'-pyrrolidino-ethyl)-2-carboxy-benzamide]	500	1000		very soluble		-8	very soluble	very soluble	
COc1cc(C(=O)NCCN2CCCC2)cc(OC)c1OC [F 1538, N(2'-pyrrolidino-ethyl)-3-4-5-trimethoxy-benzamide hydrochloride]	300	562		soluble		-1	soluble	soluble	
O=C(COc1ccc(Cl)cc1)NCCN1CCCC1 [F 1539, N(2'-pyrrolidino-ethyl)-4-chloro-phenoxy-acetamide hydrochloride]	178	1000		soluble	75		soluble	soluble	
CC(C)(Oc1ccccc1)C(=O)NCCN1CCCC1 [F 1540, N(2'-pyrrolidino-ethyl)phenoxy-isobutyramide hydrochloride]	237	1000		soluble			soluble	soluble	
CC(C)(Oc1ccc(Cl)cc1)C(=O)NCCN1CCCC1 [F 1541, N(2'-pyrrolidino-ethyl)-4-chloro-phenoxy-isobutyramide hydrochloride]	178	562	high order of local anesthesia activity comparable to that of procaine	Soluble	60		Soluble	Soluble	
O=C(C=Cc1ccccc1)NCCN1CCCC1 [F 1542, N(2'-pyrrolidino-ethyl)cinnamide, HCl]	178	1000		very soluble		-19.5	very soluble	very soluble	
O=C(NCCN1CCCC1)C(c1ccccc1)c1ccccc1 [F 1629, N(2-pyrrolidino-ethyl)-α,α-diphenyl-acetamide pamoate]				Insoluble					% decrease in no. coughs in 15 mins. ([8]; 50 mg/kg): -30; % decrease in no. coughs in 15 mins. ([8]; 100 mg/kg): -50; DL 50 intraperitoneal [9]: 750 mg/kg; DL 50 oral [9]: 2000 mg/kg; Solubility in alcohol ([3]; in words): Insoluble; Solubility in dimethyl acetamide ([3]; in words): Soluble; Solubility in methyl pyrrolidone ([3]; in words): Soluble
O=C(NCCN1CCCC1)C(c1ccccc1)c1ccccc1 [F 1630, N(2-pyrrolidino-ethyl)-α,α-diphenyl-acetamide palmitate]				Insoluble				Poorly soluble	DL 50 intraperitoneal [9]: 500 mg/kg; DL 50 oral [9]: 1500 mg/kg; Solubility in alcohol ([3]; in words): Poorly soluble; Solubility in dimethyl acetamide ([3]; in words): Poorly soluble; Solubility in methyl pyrrolidone ([3]; in words): Poorly soluble
